# Assay results from ChEMBL document CHEMBL1201862, “PubChem BioAssay data set” (2004).
# Active and inactive are the calls of the source.
# How the values were obtained:
# [1] = fluconazole-exposed Candida albicans growth modulators – fluorescence, retest, confirmation (AID 2467); assay type: functional, cell-based
# [2] = NIH-3T3 fibroblast cytotoxicity, dose response, cytotoxicity control, cell-based, fluorescence, Alamar Blue, secondary assay (AID 2327); assay type: functional;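 also: NIH-3T3 mouse fibroblasts cultured with fluconazole at 8 µg/mL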
# Kallikrein-7 = Kallikrein-7 (Homo sapiens, UniProt P49862); assay: Fluorescence Intensity-based biochemical primary high throughput dose response assay to identify activators of kallikrein-7 (K7) zymogen.
# Sequence of Kallikrein-7 (P49862 whole entry): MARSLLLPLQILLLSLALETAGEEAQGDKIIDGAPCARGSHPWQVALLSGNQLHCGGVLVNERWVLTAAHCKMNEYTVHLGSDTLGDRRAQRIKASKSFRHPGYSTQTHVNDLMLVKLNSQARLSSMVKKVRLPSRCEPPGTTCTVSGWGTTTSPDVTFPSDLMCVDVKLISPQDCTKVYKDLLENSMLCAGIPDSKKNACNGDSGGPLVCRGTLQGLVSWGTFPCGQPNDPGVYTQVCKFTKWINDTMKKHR
# Interleukin-8 = molecular target: T1, Interleukin-8 (Homo sapiens, UniProt P10145); assay: Dose Response confirmation of uHTS small molecule hits for cystic fibrosis induced NFkb Inhibitors in a PAF-induced IL8 counterscreen.; assay type: functional; settings: read-out: IC50_Mean
# T1 sequence (P10145 whole entry): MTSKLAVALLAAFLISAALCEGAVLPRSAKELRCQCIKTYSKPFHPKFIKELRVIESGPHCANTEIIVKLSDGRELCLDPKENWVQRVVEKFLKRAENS
# Aminopeptidase N = molecular target: T2, Aminopeptidase N (Plasmodium falciparum FcB1/Columbia, UniProt O96935); assay: malaria alanyl aminopeptidase activity blockers – biochemical, fluorogenic H-Leu-NHMec substrate, 1536-well (AID 1445); parameters: species or system Plasmodium falciparum 3D7, 3D7
# T2 sequence (O96935 whole entry): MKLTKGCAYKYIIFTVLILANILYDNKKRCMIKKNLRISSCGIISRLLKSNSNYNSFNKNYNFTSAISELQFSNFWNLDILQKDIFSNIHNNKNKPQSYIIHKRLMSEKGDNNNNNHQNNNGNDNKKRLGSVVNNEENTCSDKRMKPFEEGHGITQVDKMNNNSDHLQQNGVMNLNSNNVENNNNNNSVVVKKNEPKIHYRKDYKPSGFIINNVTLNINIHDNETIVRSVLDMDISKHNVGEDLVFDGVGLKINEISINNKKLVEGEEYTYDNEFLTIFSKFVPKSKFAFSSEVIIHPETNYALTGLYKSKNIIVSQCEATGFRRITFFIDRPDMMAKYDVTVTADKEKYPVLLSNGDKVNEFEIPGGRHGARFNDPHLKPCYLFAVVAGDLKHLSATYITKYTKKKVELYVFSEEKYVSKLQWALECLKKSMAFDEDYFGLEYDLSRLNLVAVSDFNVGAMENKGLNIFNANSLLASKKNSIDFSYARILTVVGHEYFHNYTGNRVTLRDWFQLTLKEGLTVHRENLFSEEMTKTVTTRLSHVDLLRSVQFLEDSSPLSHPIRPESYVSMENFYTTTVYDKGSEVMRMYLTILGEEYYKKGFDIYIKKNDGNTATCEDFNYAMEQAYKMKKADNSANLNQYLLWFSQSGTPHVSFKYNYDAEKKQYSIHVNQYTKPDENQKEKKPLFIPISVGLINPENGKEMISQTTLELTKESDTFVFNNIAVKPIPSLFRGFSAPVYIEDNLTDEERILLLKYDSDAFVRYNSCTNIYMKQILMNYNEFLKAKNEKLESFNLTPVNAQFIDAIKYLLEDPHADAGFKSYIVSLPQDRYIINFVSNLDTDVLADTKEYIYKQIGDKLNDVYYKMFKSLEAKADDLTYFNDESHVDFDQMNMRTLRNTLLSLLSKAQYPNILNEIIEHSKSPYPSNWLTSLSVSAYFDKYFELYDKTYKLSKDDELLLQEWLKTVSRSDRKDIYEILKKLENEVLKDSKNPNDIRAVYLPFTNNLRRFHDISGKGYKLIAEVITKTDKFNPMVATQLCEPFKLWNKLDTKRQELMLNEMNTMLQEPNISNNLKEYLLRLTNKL
# [3] = molecular target: T3, Serine/threonine-protein phosphatase (Homo sapiens, UniProt Q9BPW0); assay: Counterscreen for inhibitors of PP1: fluorescence-based biochemical high throughput dose response assay to identify inhibitors of Protein Phosphatase 5 (PP5). [Related pubchem assays: 2034 (Summary (PP5 inhibitors)), 1987 (PP5 inhibitors in singlate), 2235 (PP1 inhibitors in singlate)]
# T3 sequence (Q9BPW0 whole entry): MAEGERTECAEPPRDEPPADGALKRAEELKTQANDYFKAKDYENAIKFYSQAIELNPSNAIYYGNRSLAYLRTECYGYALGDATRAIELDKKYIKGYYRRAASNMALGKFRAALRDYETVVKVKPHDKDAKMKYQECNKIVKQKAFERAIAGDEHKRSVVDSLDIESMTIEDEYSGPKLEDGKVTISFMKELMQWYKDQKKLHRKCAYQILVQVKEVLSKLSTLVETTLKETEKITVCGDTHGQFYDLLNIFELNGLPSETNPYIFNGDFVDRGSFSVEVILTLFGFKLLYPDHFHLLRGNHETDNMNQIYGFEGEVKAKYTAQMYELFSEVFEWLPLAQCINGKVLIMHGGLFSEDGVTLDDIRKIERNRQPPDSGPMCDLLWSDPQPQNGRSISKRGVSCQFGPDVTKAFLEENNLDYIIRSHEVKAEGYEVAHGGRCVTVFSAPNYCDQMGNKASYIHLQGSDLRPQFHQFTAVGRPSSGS
# [4] = molecular target: Serine/threonine-protein phosphatase PP1-alpha catalytic subunit (Homo sapiens, UniProt P62136); assay: inhibition of protein phosphatase 1 activity – biochemical, fluorescence, dose response (AID 2403);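 also: phosphatase turnover of OMFP into fluorescent 3-O-methylfluorescein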
# Sequence of Serine/threonine-protein phosphatase PP1-alpha catalytic subunit (P62136 whole entry): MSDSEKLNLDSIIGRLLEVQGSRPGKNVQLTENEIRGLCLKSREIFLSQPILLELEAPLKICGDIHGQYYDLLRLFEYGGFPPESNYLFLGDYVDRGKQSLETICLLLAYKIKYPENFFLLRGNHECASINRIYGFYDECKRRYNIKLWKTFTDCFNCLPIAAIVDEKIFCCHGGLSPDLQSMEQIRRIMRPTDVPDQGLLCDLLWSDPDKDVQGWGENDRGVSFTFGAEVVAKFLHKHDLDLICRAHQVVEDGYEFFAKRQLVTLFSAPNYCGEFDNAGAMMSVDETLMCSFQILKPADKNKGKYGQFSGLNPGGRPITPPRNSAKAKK
# [5] = molecular target: Endoplasmic reticulum aminopeptidase 1 (Homo sapiens, UniProt Q9NZ08); assay: inhibition of human ERAP1 enzyme activity – biochemical, cherry-pick, set 2, plate reader, dose response (AID 743314)
# Sequence of Endoplasmic reticulum aminopeptidase 1 (Q9NZ08 whole entry): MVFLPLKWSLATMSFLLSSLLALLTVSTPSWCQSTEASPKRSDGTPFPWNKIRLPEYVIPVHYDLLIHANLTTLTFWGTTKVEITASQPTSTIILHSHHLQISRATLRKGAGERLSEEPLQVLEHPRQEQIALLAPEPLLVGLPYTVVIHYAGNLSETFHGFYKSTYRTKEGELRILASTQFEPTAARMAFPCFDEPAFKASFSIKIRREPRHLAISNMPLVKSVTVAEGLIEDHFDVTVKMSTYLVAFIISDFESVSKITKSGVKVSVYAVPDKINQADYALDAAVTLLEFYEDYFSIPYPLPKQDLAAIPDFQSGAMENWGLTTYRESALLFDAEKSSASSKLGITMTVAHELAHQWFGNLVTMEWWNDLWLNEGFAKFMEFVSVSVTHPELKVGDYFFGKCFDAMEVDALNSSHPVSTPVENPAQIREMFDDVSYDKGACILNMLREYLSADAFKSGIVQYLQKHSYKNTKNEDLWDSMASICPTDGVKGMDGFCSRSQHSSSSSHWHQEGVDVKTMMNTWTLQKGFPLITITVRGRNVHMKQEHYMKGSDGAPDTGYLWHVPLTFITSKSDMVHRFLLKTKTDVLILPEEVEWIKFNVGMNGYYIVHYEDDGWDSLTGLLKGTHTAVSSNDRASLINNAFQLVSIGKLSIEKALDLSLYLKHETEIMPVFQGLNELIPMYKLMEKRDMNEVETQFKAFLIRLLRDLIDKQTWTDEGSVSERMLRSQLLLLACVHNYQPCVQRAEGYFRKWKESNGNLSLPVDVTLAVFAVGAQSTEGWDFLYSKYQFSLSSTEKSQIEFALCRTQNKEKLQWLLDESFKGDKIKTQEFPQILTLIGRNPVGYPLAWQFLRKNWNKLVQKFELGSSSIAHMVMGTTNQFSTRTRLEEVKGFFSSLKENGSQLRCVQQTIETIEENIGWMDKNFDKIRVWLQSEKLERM
# [6] = molecular target: C-X-C chemokine receptor type 4 (Homo sapiens, UniProt P61073); assay: SAR analysis of small molecule antagonists of the CXCR6 receptor using a CXCR4 receptor luminescent beta-arrestin counterscreen.; assay type: functional
# Sequence of C-X-C chemokine receptor type 4 (P61073 whole entry): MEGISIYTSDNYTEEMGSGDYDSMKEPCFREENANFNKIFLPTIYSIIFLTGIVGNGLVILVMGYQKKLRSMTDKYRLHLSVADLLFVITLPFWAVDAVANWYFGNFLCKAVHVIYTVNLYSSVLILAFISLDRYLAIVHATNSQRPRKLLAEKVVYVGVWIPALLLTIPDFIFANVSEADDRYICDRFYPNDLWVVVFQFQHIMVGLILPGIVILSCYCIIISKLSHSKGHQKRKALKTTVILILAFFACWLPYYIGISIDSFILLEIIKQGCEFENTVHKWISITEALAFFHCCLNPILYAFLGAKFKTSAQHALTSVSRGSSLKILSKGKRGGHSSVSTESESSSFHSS
# [7] = molecular target: C-C chemokine receptor type 6 (Homo sapiens, UniProt P51684); assay: SAR analysis of small molecule antagonists of the CXCR6 receptor using a CCR6 receptor luminescent beta-arrestin counterscreen.; assay type: functional
# Sequence of C-C chemokine receptor type 6 (P51684 whole entry): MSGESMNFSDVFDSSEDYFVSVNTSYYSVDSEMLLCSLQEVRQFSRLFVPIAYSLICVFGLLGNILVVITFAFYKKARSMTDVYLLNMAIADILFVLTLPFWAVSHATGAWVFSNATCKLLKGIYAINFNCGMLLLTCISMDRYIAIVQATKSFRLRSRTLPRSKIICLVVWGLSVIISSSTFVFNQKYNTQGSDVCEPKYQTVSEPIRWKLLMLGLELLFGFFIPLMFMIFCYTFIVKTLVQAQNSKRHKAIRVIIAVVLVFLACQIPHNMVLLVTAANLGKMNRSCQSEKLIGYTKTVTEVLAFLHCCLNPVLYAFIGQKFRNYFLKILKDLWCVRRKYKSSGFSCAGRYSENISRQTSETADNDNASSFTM
# fMet-Leu-Phe receptor = fMet-Leu-Phe receptor (Homo sapiens, UniProt P21462); assay: formyl peptide receptor binders – dose response (AID 519); assay type: functional
# Sequence of fMet-Leu-Phe receptor (P21462 whole entry): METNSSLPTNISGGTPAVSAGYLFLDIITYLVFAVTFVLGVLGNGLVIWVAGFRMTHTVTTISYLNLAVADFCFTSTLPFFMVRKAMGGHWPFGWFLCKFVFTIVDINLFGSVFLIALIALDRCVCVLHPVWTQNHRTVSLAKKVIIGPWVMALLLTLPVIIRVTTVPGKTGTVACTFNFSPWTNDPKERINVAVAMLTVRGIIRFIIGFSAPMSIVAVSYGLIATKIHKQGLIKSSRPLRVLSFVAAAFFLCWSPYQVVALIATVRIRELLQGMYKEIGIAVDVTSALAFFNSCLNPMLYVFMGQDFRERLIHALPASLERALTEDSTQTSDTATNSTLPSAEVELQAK
# Large T antigen = Large T antigen (Simian virus 40, UniProt P03070); assay type: functional, Betapolyomavirus macacae;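 also: Confirmatory-stage PubChem screen for compounds that inhibit SV40 T antigen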
# Sequence of Large T antigen (P03070 whole entry): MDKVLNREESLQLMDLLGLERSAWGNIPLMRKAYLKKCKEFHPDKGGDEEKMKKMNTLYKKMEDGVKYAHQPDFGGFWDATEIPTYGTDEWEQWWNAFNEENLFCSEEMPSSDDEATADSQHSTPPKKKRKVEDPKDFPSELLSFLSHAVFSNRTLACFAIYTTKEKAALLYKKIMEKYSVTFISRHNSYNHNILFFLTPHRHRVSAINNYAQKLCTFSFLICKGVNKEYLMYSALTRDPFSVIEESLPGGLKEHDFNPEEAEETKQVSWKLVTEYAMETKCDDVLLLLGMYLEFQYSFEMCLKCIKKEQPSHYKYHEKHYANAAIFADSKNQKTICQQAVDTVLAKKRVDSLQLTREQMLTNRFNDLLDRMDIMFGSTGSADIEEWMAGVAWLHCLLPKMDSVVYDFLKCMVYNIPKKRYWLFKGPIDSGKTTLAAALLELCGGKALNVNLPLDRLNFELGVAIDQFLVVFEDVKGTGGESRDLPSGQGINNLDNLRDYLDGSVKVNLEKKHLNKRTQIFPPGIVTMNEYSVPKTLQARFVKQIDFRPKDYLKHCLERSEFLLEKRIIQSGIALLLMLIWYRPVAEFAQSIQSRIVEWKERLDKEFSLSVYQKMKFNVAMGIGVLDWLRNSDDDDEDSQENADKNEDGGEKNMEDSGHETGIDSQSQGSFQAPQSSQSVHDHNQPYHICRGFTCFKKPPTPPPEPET
# Caspase-6 = Caspase-6 (Homo sapiens, UniProt P55212); assay: inhibition of CASP6 peptide cleavage – biochemical, VEID-R110 fluorescence, cherry-pick, dose response (AID 720632)
# Sequence of Caspase-6 (P55212 24-179 limits assumed): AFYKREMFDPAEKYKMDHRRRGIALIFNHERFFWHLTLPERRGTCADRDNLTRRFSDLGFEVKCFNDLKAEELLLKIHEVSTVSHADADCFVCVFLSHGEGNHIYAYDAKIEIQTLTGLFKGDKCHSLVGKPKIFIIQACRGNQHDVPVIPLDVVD
# Sequence of Caspase-6 (P55212 194-293 limits assumed): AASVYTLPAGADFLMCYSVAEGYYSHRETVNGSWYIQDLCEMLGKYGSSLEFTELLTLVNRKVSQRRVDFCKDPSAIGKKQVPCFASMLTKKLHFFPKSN
# [8] = IC50 of Artemis nuclease activity blockers – biochemical, fluorescence intensity, dose response (AID 720701); assay type: functional;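 also: Artemis endonuclease enzyme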
# INS1 = assay: INS-1E survival protection against cytokine death – cell-based, luminescence, retest, dose response (AID 449756); assay type: functional; settings: Rattus norvegicus;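 also: cell death triggered by IL-1 beta plus TNF-alpha plus IFN-gamma mixture; protective hits raise ATP signal compared with cytokine alone wells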
# [9] = viability loss in MITF-independent A375 cells – cell-based, CellTiter-Glo luminescence, dry powder, set 7, counter-screen for MITF inhibitor project, dose response (AID 624490); assay type: functional; settings: A-375
# [10] = MITF Measured in Cell-Based System Using Plate Reader - 2084-01_Inhibitor_Dose_DryPowder_Activity_Set7.; assay type: functional
# [11] = MITF Measured in Cell-Based System Using Plate Reader - 2084-01_Inhibitor_Dose_DryPowder_Activity_Set6.; assay type: functional
# [12] = MITF Orthogonal Assay: SK-MEL-5 CTG Assay Measured in Cell-Based System Using Plate Reader - 2084-02_Inhibitor_Dose_DryPowder_Activity_Set5.; assay type: functional
# [13] = growth inhibition of MALME3 cells – cell-based, CellTiter-Glo luminescence, dry powder, set 5, orthogonal assay for MITF inhibitor project, dose response (AID 651584); assay type: functional; settings: MALME-3
# [14] = MITF Orthogonal Assay: MALME3 CTG Assay Measured in Cell-Based System Using Plate Reader - 2084-04_Inhibitor_Dose_DryPowder_Activity_Set6.; assay type: functional; settings: MALME-3
# [15] = inhibitors of TRPM1-promoter reporter in SK-MEL-5 – cell-based, luciferase, dry powder, set 9, MITF inhibitor project, dose response (AID 651588); assay type: functional
# [16] = cytotoxicity in MITF-independent A375 cells – cell-based, CellTiter-Glo luminescence, dry powder, set 4, counter-screen for MITF inhibitor project, dose response (AID 624364); assay type: functional; settings: A-375;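 also: A375 melanoma cells are MITF independent so this is a counter screen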
# [17] = melanocyte viability loss, MITF-dependent cells, cell-based, plate reader, dry powder, cytotoxicity control, dose response (AID 651920); assay type: functional
# [18] = growth inhibition of SK-MEL-5 melanoma cells – cell-based, CellTiter-Glo luminescence, dry powder, set 8, orthogonal assay for MITF inhibitor project, dose response (AID 651586); assay type: functional
# [19] = cytotoxicity in melanoma parental cells – cell-based, CellTiter-Glo, dry powder, set 6, MITF inhibitor project, dose response (AID 624429); assay type: functional; settings: SK-MEL-5
# [20] = IGROV1 cell killing – plate reader, dry powder samples, PAX8 inhibitor project, dose response (AID 743043); assay type: functional, cell-based; settings: IGROV-1
# [21] = OVCAR-3 cell viability loss – plate reader, dry powder samples, PAX8 inhibitor project, dose response (AID 743044); assay type: functional, cell-based
# [22] = OVCAR8 cell viability loss – plate reader, dry powder samples, PAX8 project, dose response (AID 743197); assay type: functional, cell-based; settings: OVCAR-8
# Paired box protein Pax-8 = Paired box protein Pax-8 (Homo sapiens, UniProt Q06710); assay: PAX8 transcriptional activity inhibition in RMG-I – RMG-I cells, luciferase, cherry-pick, dose response (AID 687027); assay type: functional, cell-based;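 also: luciferase reporter driven by Pax8 target thyroperoxidase promoter measured by SteadyGlo luminescence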
# Sequence of Paired box protein Pax-8 (Q06710 whole entry): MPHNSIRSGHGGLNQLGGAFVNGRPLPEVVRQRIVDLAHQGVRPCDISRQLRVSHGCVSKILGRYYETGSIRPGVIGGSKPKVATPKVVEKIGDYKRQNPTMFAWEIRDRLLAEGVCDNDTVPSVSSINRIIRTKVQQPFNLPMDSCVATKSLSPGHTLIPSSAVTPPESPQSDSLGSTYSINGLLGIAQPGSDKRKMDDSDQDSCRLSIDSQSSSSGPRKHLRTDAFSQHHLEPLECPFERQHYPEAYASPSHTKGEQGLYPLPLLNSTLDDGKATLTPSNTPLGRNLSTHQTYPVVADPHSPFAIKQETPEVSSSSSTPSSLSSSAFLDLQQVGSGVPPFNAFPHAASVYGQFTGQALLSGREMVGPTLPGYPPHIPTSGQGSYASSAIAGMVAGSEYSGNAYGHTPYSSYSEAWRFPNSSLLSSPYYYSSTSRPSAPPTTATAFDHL
# [23] = toxicity toward immortalized ovarian surface epithelium – cell-based, plate reader, dry powder samples, cytotoxicity control for PAX8 inhibitor project, dose response (AID 743045); assay type: functional
# [24] = ATP-based viability loss in HeLa cells – cell-based, CellTiter-Glo luminescence, dry powder, set 2, cytotoxicity control, dose response (AID 720593); assay type: functional
# [25] = dual-tagged ARNT PAS-B bead signal quenchers – biochemical, dry powder, artefact control for ARNT/TACC3 disruptor project, dose response (AID 720564)
# [26] = ATP-based viability loss in HEK293T cells – cell-based, CellTiter-Glo luminescence, dry powder, set 2, cytotoxicity control, dose response (AID 720595); assay type: functional; settings: HEK293
# [27] = HepG2 hepatoma cell viability loss – plate reader, dry powder, cytotoxicity control, dose response (AID 651947); assay type: functional, cell-based
# [28] = viability loss in A549 lung cancer cells – cell-based, cherry-picks, […], cytotoxicity control, dose response (AID 1053119); assay type: functional
# [29] = blockers of FN fibrillogenesis by fibroblasts – AH1F cells, Alexa488-FN fluorescence, cherry-picks, dose response (AID 1035475); assay type: functional, cell-based
# [30] = viability loss in HEK293 kidney cells – cell-based, cherry-picks, set 5, cytotoxicity control, dose response (AID 1053117); assay type: functional
# [31] = viability loss in A549 lung cells – cell-based, 24 h, CellTiter-Glo luminescence, cherry-picks, cytotoxicity control, dose response (AID 1053115); assay type: functional; settings: A549, 24 h
structure (smiles),measurement,setting,value
COc1ccc(-c2cc(=O)oc3cc(OC(=O)C4CCCCC4)c(Cl)cc23)cc1,EC50,[1],1.9 µM (active)
same,EC50,[2],34.6 µM (active)
same,EC50,Kallikrein-7,> 69.5 µM (inactive)
same,IC50,Interleukin-8,4.55 µM (active)
CCCCCCC[C@H](N)[C@H](O)C(=O)N(C)[C@@H](CC[S+](C)[O-])C(=O)N[C@@H](Cc1ccc(O)cc1)C(=O)N[C@@H](Cc1ccc(O)cc1)C(=O)O (some centres undefined),IC50,Aminopeptidase N,16.8 µM (active)
same,IC50,[3],0.578 µM (active)
same,IC50,[4],0.227 µM (active)
same,AC50,[5],8.53 µM (active)
COc1cc(C(=O)NC2CC3CCCC(C2)N3CC(=O)Nc2ccccc2)cc(OC)c1OC (centres undefined),IC50,[6],> 79 µM (inactive)
same,IC50,[7],> 79 µM (inactive)
Cc1cc(SCC(N)=O)nc(SCC(=O)c2ccccc2)n1,Ki,fMet-Leu-Phe receptor,> 66.7 µM (inactive)
COc1ccc(Br)cc1C1CC(=O)N2CN(C)CSC2=C1C#N (centres undefined),IC50,Large T antigen,76.9 µM (active)
same,AC50,Caspase-6,39.2 µM (active)
c1ccc(-c2nnc3sc(-c4csc5c4CCCC5)nn23)cc1,IC50,[8],> 20 µM (inactive)
same,AC50,INS1,64.1 µM (active)
O=C1C=C(NS(=O)(=O)c2ccccc2)C(=O)c2ccccc21,AC50,[9],> 70 µM (inactive)
same,AC50,[10],4.57 µM (active)
same,AC50,[11],3.04 µM (active)
same,AC50,[12],10.3 µM (active)
same,AC50,[13],21.3 µM (active)
same,AC50,[14],21.3 µM (active)
same,AC50,[15],13 µM (active)
same,AC50,[16],> 70 µM (inactive)
same,AC50,[17],59.4 µM (active)
same,AC50,[18],18.4 µM (active)
same,AC50,[19],10.5 µM (active)
O=C(NC1CCCCC1)N1C[C@@H]2N[C@H](C1)[C@@H]2c1ccc(-c2ccc(F)cc2)cc1,AC50,[20],63.7 µM (active)
same,AC50,[21],22 µM (active)
same,AC50,[22],> 70 µM (inactive)
same,AC50,Paired box protein Pax-8,17.2 µM (active)
same,AC50,[23],45.7 µM (active)
O=C(Nc1nnc(-c2ccc(F)cc2)o1)c1ccc(S(=O)(=O)N2CCCCC2)cc1,AC50,[24],46.1 µM (active)
same,AC50,[25],72.4 µM (active)
same,AC50,[26],2.51 µM (active)
FC(F)(F)c1ccc(CSc2nnc(-c3ccccc3)o2)cc1,AC50,[27],0.223 µM (active)
N#Cc1ccc(-c2ccc3c(c2)[C@H]2[C@H](CCN2S(=O)(=O)c2cccc(F)c2)[C@H](CO)N3)cc1,AC50,[28],33.6 µM (active)
same,AC50,[29],5.71 µM (active)
same,AC50,[30],32.6 µM (active)
COc1ccccc1CN1CC[C@@H]2[C@H](CO)Nc3ccc(C#Cc4ccccc4)cc3[C@@H]21,AC50,[31],> 60 µM (inactive)
